Common to all, as to type: cell-based
One test has as its target T1, hEP3A/Gqi5 (Homo sapiens, UniProt P43115).
T1 construct: expressed in transfected cells
T1 sequence (P43115 1-390): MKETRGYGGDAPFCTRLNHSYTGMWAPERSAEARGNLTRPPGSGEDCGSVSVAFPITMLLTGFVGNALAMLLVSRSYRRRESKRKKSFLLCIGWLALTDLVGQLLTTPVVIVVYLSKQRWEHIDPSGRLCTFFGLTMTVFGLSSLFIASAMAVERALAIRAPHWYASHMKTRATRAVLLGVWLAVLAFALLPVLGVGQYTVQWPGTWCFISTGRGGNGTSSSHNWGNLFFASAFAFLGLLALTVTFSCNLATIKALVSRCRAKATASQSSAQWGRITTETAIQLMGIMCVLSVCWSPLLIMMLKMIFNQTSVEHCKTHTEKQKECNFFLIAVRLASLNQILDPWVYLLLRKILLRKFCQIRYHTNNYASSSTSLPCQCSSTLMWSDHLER
The test is described as follows: FLIPR calcium signal, EP3. Particulars: HEK-293(EBNA). In outline: (§1)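 Stably transfected HEK-293(EBNA) cells loaded with 2 μM Fluo-4 AM in HBSS-HEPES pH 7.4, 37° C; peak fluorescence rise after compound addition (FLIPR, 488 nm excitation) expressed relative to buffer and standard agonist controls (PGE2 for EP subtypes, U-46619 for TP). Tested 10^−5 to 10^−11 M, duplicates, n≧3.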

In a further test the target is T2, hFP (Homo sapiens, UniProt P43088).
T2 construct: expressed in transfected cells
Kind of test: FLIPR calcium signal, FP. Particulars: HEK-293(EBNA). A digest of the protocol:
as §1

The next test deals with T3, hTP (Homo sapiens, UniProt P21731).
T3 construct: expressed in transfected cells
T3 sequence (P21731 1-343): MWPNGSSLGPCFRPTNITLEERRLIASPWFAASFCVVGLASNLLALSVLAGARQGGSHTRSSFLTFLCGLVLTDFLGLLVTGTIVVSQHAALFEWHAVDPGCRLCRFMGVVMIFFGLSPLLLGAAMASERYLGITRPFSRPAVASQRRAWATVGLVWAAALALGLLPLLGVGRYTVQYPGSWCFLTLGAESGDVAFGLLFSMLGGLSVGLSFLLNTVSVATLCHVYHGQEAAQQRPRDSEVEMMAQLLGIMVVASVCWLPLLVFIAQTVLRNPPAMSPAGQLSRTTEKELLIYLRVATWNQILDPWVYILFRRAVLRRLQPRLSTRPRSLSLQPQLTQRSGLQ
The test is described as follows: FLIPR calcium signal, TP. The settings on record: HEK-293(EBNA). In outline:
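Stable HEK-293(EBNA) lines expressing recombinant human EP1, TP, or EP2/EP4 coupled via Gqs5; Fluo-4 AM loaded (2 μM, 45 min), HBSS-HEPES pH 7.4, 37° C. Peak FLIPR fluorescence expressed relative to buffer and standard agonist (PGE2 for EP receptors, U-46619 for TP); compounds at 10^−5 M or 10^−5–10^−11 M, duplicates, n≧3.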

The next test concerns the target EP2 (Homo sapiens, UniProt P43116). Kind of test: cAMP assay, HEK-EBNA cells expressing EP2. More on the design: expressed in transfected cells; host or cells: HEK-EBNA. Particulars: value in parentheses in EP2 column, read-out: EP2 EC50 (nM), measurement of cAMP (data in parentheses). A digest of the protocol: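 HEK-EBNA cells expressing EP2 (10^4 cells per well) were stimulated for 30 min at room temperature with compound in HBSS containing 0.1% BSA, 0.5 mM IBMX and 5 mM HEPES, pH 7.4. Compounds ran in 16-point serial dilutions in triplicate. cAMP was detected by AlphaScreen competition between anti-cAMP acceptor beads and biotin-cAMP/streptavidin donor beads.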

From US7585895B2, “Therapeutic substituted cyclopentanes” (Allergan, Inc., priority 2005, dated 2009) come the findings set out here.

T2 sequence (P43088 whole entry): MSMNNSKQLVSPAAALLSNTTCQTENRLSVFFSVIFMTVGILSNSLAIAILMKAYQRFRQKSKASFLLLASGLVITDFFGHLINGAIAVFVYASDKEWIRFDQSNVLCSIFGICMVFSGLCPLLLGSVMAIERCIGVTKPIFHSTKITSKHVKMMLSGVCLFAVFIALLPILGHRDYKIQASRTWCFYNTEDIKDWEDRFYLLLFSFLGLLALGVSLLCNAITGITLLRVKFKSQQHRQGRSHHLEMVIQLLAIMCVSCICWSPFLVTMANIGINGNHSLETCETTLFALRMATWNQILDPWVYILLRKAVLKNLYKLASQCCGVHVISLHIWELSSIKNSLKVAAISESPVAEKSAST
Sequence of EP2 (P43116 whole entry): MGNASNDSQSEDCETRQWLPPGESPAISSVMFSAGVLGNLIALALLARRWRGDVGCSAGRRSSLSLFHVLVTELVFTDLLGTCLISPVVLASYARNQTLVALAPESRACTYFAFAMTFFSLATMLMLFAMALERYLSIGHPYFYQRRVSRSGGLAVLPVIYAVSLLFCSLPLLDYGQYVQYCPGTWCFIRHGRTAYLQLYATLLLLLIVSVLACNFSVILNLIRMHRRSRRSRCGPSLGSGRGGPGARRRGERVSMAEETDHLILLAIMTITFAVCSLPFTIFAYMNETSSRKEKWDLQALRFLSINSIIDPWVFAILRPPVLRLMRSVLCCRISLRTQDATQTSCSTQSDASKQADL

As a reminder, the EC50 is the concentration needed to bring the measured effect to its halfway point. Take `CCCCCC(O)c1ccc([C@@H]2[C@@H](CCCc3ncc(C(=O)O)s3)[C@H](Cl)C[C@H]2O)cc1` (stereo partly drawn) [Entry 5, 2-(3-{(1R,2S,3R,5R)-5-Chloro-3-hydroxy-2-[4-(1-hydroxy-hexyl)-phenyl]-cyclopentyl}-propyl)-thiazole-5-carboxylic acid]: the “Ca2+ Signal-EC50 (nM) EP3” value at hEP3A/Gqi5 is on record as “not active”. For the same compound, the “Ca2+ Signal-EC50 (nM) FP” value at hFP is given as “not active”. The “Ca2+ Signal-EC50 (nM) TP” value on hTP is reported as “not active”. The concentration for a half-maximal effect (EC50) on EP2 is 1060 nM.
As for `O=C(O)CCC/C=C\C[C@@H]1[C@@H](c2ccc(C(O)CC3CCCCC3)cc2)[C@H](O)C[C@H]1Cl` (mixture of isomers) [Entry 17, (Z)-7-{(1R,2S,3R,5R)-5-Chloro-2-[4-(2-cyclohexyl-1-hydroxy-ethyl)-phenyl]-3-hydroxy-cyclopentyl}-hept-5-enoic acid], at hEP3A/Gqi5, the “Ca2+ Signal-EC50 (nM) EP3” value is listed as “not active”. In addition, the “Ca2+ Signal-EC50 (nM) FP” value on hFP is reported as “not active”. Also, on hTP, the “Ca2+ Signal-EC50 (nM) TP” value was “not active”. For the same compound, the EC50 at EP2 was determined as 495 nM.
For `CCCCC(O)c1ccc([C@@H]2[C@@H](C/C=C\CCCC(=O)O)[C@H](Cl)C[C@H]2O)cc1` (mixture of isomers) [Entry 27, (Z)-7-{(1R,2S,3R,5R)-5-Chloro-3-hydroxy-2-[4-(1-hydroxy-pentyl)-phenyl]-cyclopentyl}-hept-5-enoic acid], the “Ca2+ Signal-EC50 (nM) EP3” value at hEP3A/Gqi5 is reported as “not active”. For the same compound, the “Ca2+ Signal-EC50 (nM) FP” value on hFP is listed as “not active”. On hTP, the “Ca2+ Signal-EC50 (nM) TP” value is recorded as “not active”. On EP2, the EC50 was determined as 10 nM.
